Mass density data for one molecule are collected here from the NIST ThermoML archive (doi:10.1021/je8007588).

± gives the expanded uncertainty stated by the source.

The conditions of this series: 298.15 K; 101.33 kPa; Liquid; Vibrating tube method.

Turning to `CCCCCC[N+](C)(C)CCO.F[B-](F)(F)F` [hexyl(2-hydroxyethyl)dimethylammonium tetrafluoroborate], the mass density came out at 1123.6 ± 6.9 kg/m3.

The mass density is mass per unit of volume.
